# Results from EP0315861A1, “Antimycotic compositions of a nikkomycin compound and an antimycotic azole” (BAYER AG, priority 1987, dated 1989).
# Columns and labels:
# [1] = tested on: Candida albicans-Strang B311; assay: checkerboard in vitro synergy test (microtiter plates, growth inhibition endpoints, isobolograms); type: cell-based; conditions: combination with Nikkomycin versus azole alone
# Source text: Um die Eignung von Nikkomycinen und Azolen hinsichtlich der synergistischen Wirkung zu testen, wurde ein schachbrettartiger in vitro-Versuch mit der Hefe Candida albicans durchgeführt.
# Ein Candida albicans-Strang B311 wurde über Nacht in einer Glucose-Hefeextrakt-Kultur gezüchtet, gewaschen und auf die gewünschte Dichte gebracht.
# Die Tests wurden in 96-Loch-Mikrotiterplatten durchgeführt, wobei man eine Hefestickstoffkultur mit Dextrose und Asparagin als Wachstumsmedium verwendete. Die Testmaterialien wurden gelöst, serienmässig verdünnt und dann in die geeigneten Löcher der Mikrotiterplatten überführt, so dass die Endkonzentrationen von 0,02 bis 1 mMol für die Nikkomycine, und 0,06 bis 64 µg für die Azole betrugen. Alle Löcher wurden mit 10.000 Organismen/ml (Endkonzentration) geimpft,und die Platten bei Raumtemperatur 48 Stunden lang inkubiert. Die Platten wurden dann ausgewertet,und die Wachstumsrate für jedes Loch festgestellt. Die Endpunkte wurden für jede Reihe als niedrigste Konzentration, die eine vollständige Inhibierung des Wachstums zeigte, bestimmt. Die Daten wurden als Isobologramme geplottet, die die Endpunkte für die einzelnen Verbindungen als auch die Endpunkte für die verschiedenen Kombinationen zeigten. […]
# [2] = tested on: C. albicans; assay: septic murine candidosis model, oral therapy; type: in vivo, CFW₁-Mäuse; conditions: for Zahl der überlebenden Tiere in den folgenden Tagen nach der Infektion: 2 x 100 mg/kg oral on the day of infection, 10 animals at day 0
# Experimental: Wirksamkeit von Nikkomycin X und Z in dem Tiermodell von Murine candidosis.
# Gezüchtete CFW₁-Mäuse wurden intravenös mit 6 x 10⁵ cfu von C. albicans infiziert. Die orale Therapie wurde gleichzeitig mit der Infektion gestartet. Die Mittel wurden einzeln mit Nährnadeln in Volumina von 0,5 ml ausgegeben.
# In dem Modell der septischen Murine candidosis, das häufig zum Testen von Azolen verwendet wird, wird die Behandlung der Tiere gleichzeitig mit der Infektion gestartet, indem man 2 x 100 mg/kg beider Zubereitungen am Tag der Infektion verabreichte. Diese Verabreichungsweise erzeugt nur eine leichte Verzögerung in der lethalen Kinetik (Tabelle 1).
SMILES,Reduktion des Endpunktes für die Kombination hinsichtlich des Azolendpunktes [1],Zahl der überlebenden Tiere in den folgenden Tagen nach der Infektion ([2]; day 3 after infection),Zahl der überlebenden Tiere in den folgenden Tagen nach der Infektion ([2]; day 6 after infection),"Wirksamkeit ([2]; 14-day treatment, daily dose 2 x 10 mg/kg, Fig. 2)","Wirksamkeit ([2]; treatment period 3 days, 100 mg/kg, Fig. 1)"
Clc1ccccc1C(c1ccccc1)(c1ccccc1)n1ccnc1 [Clotrimazol],≥ 50 -fach,–,–,–,–
C[C@@H]([C@H](N)C(=O)N[C@H](C(=O)O)[C@H]1O[C@@H](n2cc(C=O)[nH]c2=O)[C@H](O)[C@@H]1O)[C@H](O)c1ccc(O)cn1 [Nikkomycin X],–,10,3,–,–
C[C@@H]([C@H](N)C(=O)N[C@H](C(=O)O)[C@H]1O[C@@H](n2ccc(=O)[nH]c2=O)[C@H](O)[C@@H]1O)[C@H](O)c1ccc(O)cn1 [Nikkomycin Z],–,6,5,wirksamer als 2 x 100 mg/kg,vergleichbar zu der von 25 mg/kg Ketoconazol oder Vibunazol
